{"source": "patent US6338963B1", "about": "“Use of carbon monoxide dependent guanylyl cyclase modifiers to stimulate neuritogenesis” (NeoTherapeutics, Inc., priority 1994, dated 2002)", "key": {"[1]": {"test_system": "cultured rat hippocampal neurons", "assay": "NMDA-induced toxicity in cultured rat hippocampal neurons, astrocyte conditioned medium", "conditions": "NMDA 100 μM pulse of 10 min.", "description": "To determine whether or not AIT-082 afforded in vitro neuroprotection, the effect of AIT-082 on toxicity induced by N-methyl-D-aspartate (NMDA) in cultured rat hippocampal neurons was studied.\nTo determine whether AIT-082 protected against neuronal toxicity induced by NMDA, and whether astrocytes might be involved, cultured astrocytes were exposed to AIT-082 for 6 hr. The drug was then removed and cultures were kept in fresh medium for the following 20 hr. This conditioned medium was then added to primary cultures of rat hippocampal neurons on the seventh day in vitro, immediately after they had been exposed to a toxic pulse of NMDA.\nIt was next evaluated whether the addition of conditioned medium (CM) deriving from astrocyte cultures treated with 100 μM AIT-082 generated protection against damage induced by a toxic pulse with 100 μM NMDA in cultured neurons.\nThe effects of NMDA are shown in FIG. 66A on cortical cells and in FIG. 66B for hippocampal cells."}, "[2]": {"test_system": "cultured neurons from rat cerebral cortex", "assay": "NMDA-induced toxicity in cultured rat cortical neurons, astrocyte conditioned medium", "assay_type": "cell-based", "conditions": "NMDA pulse 100 μM for 10 min, Trypan blue or LDH", "description": "In these experiments, cultured neurons were prepared from rat cerebral cortex. In these cultures the NMDA pulse (100 μM for 10 min) provoked about 80% neuronal death (measured by Trypan blue cell staining or LDH activity). Separately, cultured astrocytes were treated for 6 hours with AIT-082. Then, the medium containing the drug was replaced with fresh medium without the drug and the astrocyte cultures were maintained in this medium for the next 24 hours. This medium represented the CM and was added to neurons soon after the toxic pulse with NMDA. The addition of CM partly counteracted the toxic effects caused by NMDA, reducing the neuronal damage by about 50%. If the medium was boiled for 20 min at 100° C. prior to addition to NMDA-damaged neurons, it completely lost the protective activity. […] To verify whether the neuroprotection caused by AIT-082 was ascribable to the production of TGFβ2 or NGF, antibodies to TGFβ2 or to NGF (100 ng/ml) were added together with CM.\nConversely, when DPCPX (100 nm) was added to astrocyte cultures together with AIT-082, the neuroprotective effect of the resulting CM deriving from the culture of the astrocytes with AIT-082 was reduced by only 20%, as compared to the neuroprotective effect of CM derived from astrocytes exposed to AIT-082 alone (assumed as equal to 100%)."}, "[3]": {"test_system": "rat caudate nuclei", "assay": "GAD activity in rat caudate nuclei damaged by NMDA", "assay_type": "in vivo", "conditions": "NMDA 25-300 nmoles infused unilaterally, maximal lesion, 8 to 10 days", "description": "The effect of AIT-082 on in vivo neuroprotection was also assessed by assaying for glutamic acid decarboxylase (GAD) activity.\nGAD activity in rat caudate nuclei was damaged in vivo by NMDA. Increasing amounts of NMDA (25-300 nmoles) were unilaterally infused into caudate nuclei of rats. Eight to 10 days after the injections, glutarnic acid decarboxylase (GAD) activity was assayed, as an index of the loss of GABA-ergic neurons. NMDA produced a dose-dependent lesion, which at its maximal extension caused a reduction of GAD activity by 50% in comparison with that of contralateral sham-operated nuclei (control). […] The necrotic areas are in white, whereas the shadow is the surrounding edema GAD activity was evaluated by measuring the ex novo formation of [^3H]GABA from dissected striata exposed to 1 μCi of [^3H]glutamate for 1 hour at 37° C. GABA was assayed by HPLC with fluorescence detection and the [3H]label associated with GABA was measured."}, "[4]": {"test_system": "Swiss Webster mice", "assay": "Win-shift T-maze memory test, Swiss Webster mice", "assay_type": "in vivo", "conditions": "90-second inter-trial interval, THA 1.25 mg/kg i.p.", "description": "Male Swiss Webster mice six months (young adult) and eleven months (old) of age, obtained from the National Institute on Aging, were maintained in individual cages, on a […] light/dark cycle with continuous access to water. Food was limited so that the mice stabilized at 80% of free feeding weight. Mice were weighed and handled daily for one week. The win-shift model was run as described in the literature and consists of a T-maze in which the correct response alternates after each correct trial. The interval between trials is varied and allows for the determination of the longest period between trials that a subject can remember the correct response on the previous trial. This allows the measure of the duration of the memory trace. […] The reward goal box is alternated after each correct trial. Ten trials per mouse are run each day. […] The latency time to leave the start box is recorded as a measure of motivation, the running time (the time from leaving the start box to reaching the goal box) is recorded as a measure of performance, and the number of correct responses as a measure of memory.\n(§1) The drugs used in this example are 4-((3-(1,6-dihydro-6-oxo-9-purin-9-yl)-1-oxopropyl)amino) benzoic acid (AIT-082), as an exemplary potassium salt, tacrine hydrochloride (tetrahydroaminoacridine, THA, Sigma Chemical Co., St. Louis, Mo.), and physostigmine, hemisulfate salt (PHY, Sigma Chemical Co., St. Louis, Mo.). The drugs were dissolved in saline and prepared fresh daily. All injections were made at a volume of 0.1 ml/10 grams body weight. When testing drug effects, intraperitoneal (i.p.) injections of AIT-082 or THA were made one hour prior to the start of testing. Due to its shorter duration of action, PHY was injected 30 minutes prior to testing. Control subjects receive a similar injection of saline (vehicle).\nTo determine the duration of the memory trace, subjects were administered drug or saline and 30 minutes (PHY) or 1 hour (AIT-082 or THA) later they were given a single reference run with the milk reward in both goal boxes. After the indicated inter-trial delay, subjects were returned to the start box and given the first test trial with the milk reward only in the goal box opposite to the one entered on the previous correct trial. The subjects were given 10 trials with the reward alternating only after correct responses.\nTo determine if tolerance to the biological effects of AIT-082 developed, drug or saline was administered daily for 18 days prior to the testing in the standard win-shift paradigm."}, "[5]": {"test_system": "Swiss Webster mice", "assay": "Locomotor activity (spontaneous movements), Swiss Webster mice", "assay_type": "in vivo", "conditions": "THA 1.25 mg/kg", "description": "The activity of AIT-082 was compared with tacrine (THA) and physostigmine (PHY), experimental anticholinesterase agents which enhance memory in animals. The drugs were also evaluated for their effects on locomotor activity. In the win-shift memory paradigm, AIT-082 was evaluated for its ability to induce tolerance after 18 days of drug administration. In addition AIT-082 was tested for its activity to modify learning in a modified T-maze discrimination task.\nas §1"}}, "note": "Structures can show the parent of a compound that is named as a salt. Marks after values point to notes of the source that are not given here.", "data": [{"smiles": "CN[C@H](CC(=O)O)C(=O)O", "note": "[NMDA, N-methyl-D-aspartate]", "values": [{"measurement": "death of the cultured neurons", "setting": "[1]", "value": "~75", "unit": "%"}, {"measurement": "Count of Dead Cells (Trypan Blue Staining)", "setting": "[1]; within 24 hours", "value": "401.4 ± 27.3"}, {"measurement": "LDH", "setting": "[1]; within 24 hours", "value": "262.8 ± 13.4", "unit": "mOD/min"}, {"measurement": "neuronal death", "setting": "[2]", "value": "about 80%"}, {"measurement": "reduction of GAD activity versus contralateral sham-operated nuclei", "setting": "[3]", "value": 50, "unit": "%"}]}, {"smiles": "Nc1c2c(nc3ccccc13)CCCC2", "note": "[THA, tacrine hydrochloride, reference compound]", "values": [{"measurement": "Win-shift Memory Test, Correct responses", "setting": "[4]", "value": "7.1* Correct responses/10 trials"}, {"measurement": "Locomotor Activity", "setting": "[5]", "value": "671* Spontaneous movements per hour"}]}]}
